How the values were obtained:
[1] = Release of encapsulated small molecules from capsules in fresh buffer (UV absorption of supernatant); assay type: physicochemical
Description: The release of the encapsulated species from the capsules was then studied. To this effect, the capsules were incubated in fresh buffer for an increasing period of time, removed the gels by centrifugation, and measured the concentration of released small molecules in the supernatant through their UV absorption. The results shown in FIG. 4 (d) reveal marked differences in the rate of release of the small molecules.
The loaded microgels were washed with 10 mM HCl at intervals of time from 10 min to 14 d. The solutes after each washing were analysed by UV spectroscopy.

[2] = Release kinetics of insulin, glucagon and lysozyme from protein microgel capsules (washing with DDW pH 7); assay type: physicochemical; conditions: compared to insulin and lysozyme proteins
Description: The efficiency of microfluidic techniques for protein capsules synthesis was studied by calculating the percentage of protein participating in capsule formation following the fluorescent signal of labelled protein in residue solutions. After the preparation of the microgel capsules was accomplished and the resulting capsules were washed, in order to remove unreacted species, and the concentration of unreacted protein was calculated following UV absorption and fluorescent signal of each protein. In order to study the release kinetics of insulin, glucagon and lysozyme protein microgel shells, the loaded samples were washed with DDW pH=7 within following intervals of time: 10 min., 30 min., 1 h., 3 h., 8 h., 12 h., 24 h., 48 h., 3 d., 7 d. Each washing solution was than analysed by UV spectroscopy and fluorimeter and exact concentration of the released species was detected.
Finally, whether the aggregation nature of the protein structures influenced the release kinetics of the encapsulated proteins was studied. […] This effect is attributed to the slow aggregation process of glucagon protein in the protein assembly. However, for the multishell structures, the proteins which localise at the core of the microgels tend to dissociate (release) only after the proteins of the outer shell are released. […]

Question: For `CC1(C)S[C@@H]2[C@H](NC(=O)COc3ccccc3)C(=O)N2[C@H]1C(=O)O` [Penicillin V], which “time to maximum release rate” value ([1]; release from lysozyme capsules in fresh buffer) is on record?
Answer: one

Question: With `Cc1ccc2c(c1)sc(-c1ccc(N(C)C)cc1)[n+]2C.[Cl-]` [ThT, Thioflavin T] as the molecule, how does the “extent of release from capsules” value ([1]; after one week) read?
Answer: not fully released

Question: Which “release rate of protein from capsules” value [2] does the source give for “glucagon: human glucagon (Gemini Bio-Products), protein assembled into and released from microgel capsules” here?
Answer: much faster
